# Measurements reported in patent US10238667B2, “Vitamin D receptor/SMAD genomic circuit gates fibrotic response” (Salk Institute for Biological Studies, priority 2013, dated 2019).
# Legend:
# [1] = tested on: LX-2 cells; experiment: TGFβ1-induced fibrotic gene expression (RT-qPCR, siRNA) in LX-2 cells; assay type: cell-based, human
# Protocol: FIGS. 4A-4C. VDR Signaling Suppresses TGFβ-induced Pro-Fibrotic Genes. (A) Heat map comparing 519 differentially expressed genes in freshly isolated rat HSCs (quiescent HSCs, Q-HSCs), activated HSCs (A-HSCs, 3 days culture on plastic) and cells cultures in the presence of 10 nM 1,25(OH)2D3 (A-HSCs+1,25(OH)2D3). Euclidean clustering of both rows and columns using log2 transformed microarray expression data, n=2 per treatment group. (B) Heat map of fold expression change of genes involved in fibrosis in primary rat HSCs treated with TGFβ1 (1 ng/ml) and TGFβ1 plus 1,25(OH)2D3 (100 nM) for 24 hours, n=2 per treatment group. […] Data represents the mean±SEM of at least three independent experiments performed in triplicate. Asterisks denote statistically significant differences (Student's unpaired t-test, *p<0.05, **p<0.01).
# LX-2 cells, a generous gift from Professor Scott Friedman, Mount Sinai School of Medicine, New York, N.Y., were cultured as described previously (Xu et al., 2005). […] For luciferase assays, DNA transfections were performed using Fugene 6 (Roche) following the manufacturer's instructions. […] Quantitative PCR was performed in technical triplicates using SYBR Green reagent (Biorad). The relative standard curve method was used for quantitation (Biorad). Expression levels were calculated by normalization to either Gapdh (mouse) or U36B4 (human) quantities. […]
# [2] = tested on: C57BL/6J mice; experiment: CCl4 model of liver injury and fibrosis; assay type: in vivo, mouse
# Protocol: LX-2 cells, a generous gift from Professor Scott Friedman, Mount Sinai School of Medicine, New York, N.Y., were cultured as described previously (Xu et al., 2005). […] For luciferase assays, DNA transfections were performed using Fugene 6 (Roche) following the manufacturer's instructions. […] RT-qPCR, total RNA was purified following TRIzol extraction and treated with DNaseI (Invitrogen). cDNA synthesis was carried out with iScript RT Supermix (Biorad). Quantitative PCR was performed in technical triplicates using SYBR Green reagent (Biorad). The relative standard curve method was used for quantitation (Biorad). Expression levels were calculated by normalization to either Gapdh (mouse) or U36B4 (human) quantities.
# 8 week-old male C57BL/6J mice were IP injected with 0.5 ml/kg body weight CCl4 (1:50 v/v in corn oil from Sigma) or vehicle (DMSO in corn oil) three times a week for 4 weeks. […] The animals were terminated 72 hours after the final CCl4 injection and whole livers and serum were collected for histological, cytological, biochemical and molecular analyses.
# 5 μm sections of formalin-fixed liver were stained following standard H&E and Sirius Red methods and reviewed by a pathologist who was blinded to the experimental conditions. Fibrosis was scored using the Ishak modified histological activity index (HAI) scoring system. Fibrosis was also quantified using Image J software on 10 non-contiguous Sirius Red stained sections. All images were obtained using a high-resolution Leica DFC420 digital camera mounted on an Olympus microscope equipped with ×4/0.13, ×10/0.30, ×20/0.50 and ×40/0.75 UplanFL N plan objective lenses and processed with the Leica Application Suite. Hepatic hydroxyproline content was measured using a commercial colorimetric assay from Biovision (K555-100).
# [3] = tested on: NCoR, SMRT, HDAC3, CoREST, LSD1, and G9a; experiment: ChIP-qPCR of corepressor recruitment at COL1A1 and COL1A2 regulatory regions in LX-2 cells; assay type: cell-based, human; conditions: calcipotriol 100 nM and TGFβ1 1 ng/ml
# Source text: FIGS. 12A-12B. Coactivator/Corepressor Recruitment and Histone H3 Acetylation Status at Regulatory Regions of Fibrotic Genes Co-occupied by VDR and SMAD. […] The level of occupancy is expressed relative to input chromatin in LX-2 cells treated with corresponding conditions. Data represents the mean+/−SEM of at least three independent experiments performed in triplicate. Asterisks denote statistically significant differences (Student's t test, *p<0.05). […] The level of occupancy is expressed relative to input chromatin in LX-2 cells treated with corresponding conditions.
# Cells were then harvested for ChIP assay. The experimental procedure for ChIP was as previously described (Barish et al., 2010). Briefly, after fixation, nuclei from LX-2 cells were isolated, lysed and sheared with a Diagenode Bioruptor to yield DNA fragment sizes of 200-1000 base pairs followed by immunoprecipitation using antibodies listed below: normal rabbit IgG (Santa Cruz, sc-2027), VDR (Santa Cruz, sc-1008), SMAD3 (Abcam, ab28379) and histone H3 (Abcam, ab1791). For ChIP-Re-ChIP, after first ChIP, the immunoprecipitated DNA-protein complex was eluted from beads using 10 mM DTT, diluted 100-fold then re-immunoprecipitated with a second antibody, re-ChIP.
structure (smiles),measurement,setting,value
"C=C1/C(=C\C=C2/CCC[C@]3(C)[C@@H]([C@H](C)/C=C/[C@@H](O)C4CC4)CC[C@@H]23)C[C@@H](O)C[C@@H]1O [calcipotriol, 1α,24-(OH)2-24-cyclopropyl-D3]",fibrotic gene expression,[1],potently repressed
same,calcipotriol-mediated repression of TGFβ1 induced gene expression after loss of VDR,"[1]; siVDR RNAi, Cal 100 nM, TGFβ1 1 ng/ml, 16 hours",abolished
same,"fibrosis (Sirius red staining, hepatic hydroxyproline content, histological fibrotic scoring)","[2]; CCl4 0.5 ml/kg IP 3 times per week, 4 weeks, calcipotriol 20 μg/kg oral gavage co-treatment",significant reduction in fibrosis
same,serum calcium concentration,"[2]; calcipotriol 20 μg/kg oral gavage, 4 weeks",not significantly altered
same,"down-regulation of fibrotic marker genes Col1a1, Tgfb1 and Timp1","[2]; hepatic gene expression, RT-qPCR, CCl4/calcipotriol co-treated vs CCl4",50-70%
same,fibrogenic response in liver,[2]; pre-treated with calcipotriol for 5 weeks prior to CCl4/calcipotriol co-treatment,nearly completely abrogated
same,altered binding of corepressors to VDR/SMAD3 co-occupied regulatory regions,[3],not detected
